Experimental data reported in patent US20240158370A1, “CK1 alpha AND DUAL CK1 alpha / GSPT1 DEGRADING COMPOUNDS” (Innovo Therapeutics, Inc., priority 2022, published 2024).

Tests used:
[1] = molecular target: GSPT1 (Homo sapiens, UniProt P15170+Q96SW2); experiment: HiBiT degradation assay, GSPT1, Procedure B (Molt 4_hGSPT1_HiBIT cells); assay type: cell-based; set-up: Molt 4_hGSPT1_HiBIT N-terminus tagged cells were generated using CRISPR technology; endogenous in cells; host or cells: Molt 4 cells, CRISPR-edited; settings: six hours
GSPT1, sequence (P15170 whole entry): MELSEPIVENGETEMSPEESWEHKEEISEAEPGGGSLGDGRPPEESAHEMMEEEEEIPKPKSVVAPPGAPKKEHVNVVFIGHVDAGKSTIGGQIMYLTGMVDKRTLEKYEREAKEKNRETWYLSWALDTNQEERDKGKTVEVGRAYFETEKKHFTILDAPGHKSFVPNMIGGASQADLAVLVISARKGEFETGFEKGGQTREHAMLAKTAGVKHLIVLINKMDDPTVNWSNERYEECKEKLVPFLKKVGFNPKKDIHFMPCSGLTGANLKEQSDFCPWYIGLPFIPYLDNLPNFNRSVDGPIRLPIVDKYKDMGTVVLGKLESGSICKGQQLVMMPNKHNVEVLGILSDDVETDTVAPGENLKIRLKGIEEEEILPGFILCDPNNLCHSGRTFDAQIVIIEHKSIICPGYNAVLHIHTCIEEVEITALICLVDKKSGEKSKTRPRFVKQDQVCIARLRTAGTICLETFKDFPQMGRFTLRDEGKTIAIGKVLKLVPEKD
GSPT1, sequence (Q96SW2 whole entry): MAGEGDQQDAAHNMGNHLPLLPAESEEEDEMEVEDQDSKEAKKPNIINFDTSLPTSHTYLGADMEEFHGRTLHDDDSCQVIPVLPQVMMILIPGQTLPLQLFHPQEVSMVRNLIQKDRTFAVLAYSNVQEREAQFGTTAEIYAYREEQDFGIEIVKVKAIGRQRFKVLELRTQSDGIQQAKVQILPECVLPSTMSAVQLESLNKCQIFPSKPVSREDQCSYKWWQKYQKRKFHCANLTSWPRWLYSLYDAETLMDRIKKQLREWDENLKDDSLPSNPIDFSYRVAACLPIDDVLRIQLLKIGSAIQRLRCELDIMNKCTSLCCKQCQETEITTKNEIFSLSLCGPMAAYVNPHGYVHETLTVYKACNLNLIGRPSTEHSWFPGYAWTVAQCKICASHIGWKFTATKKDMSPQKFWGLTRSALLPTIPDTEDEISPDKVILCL
GSPT1, sequence (Q16531 whole entry partner): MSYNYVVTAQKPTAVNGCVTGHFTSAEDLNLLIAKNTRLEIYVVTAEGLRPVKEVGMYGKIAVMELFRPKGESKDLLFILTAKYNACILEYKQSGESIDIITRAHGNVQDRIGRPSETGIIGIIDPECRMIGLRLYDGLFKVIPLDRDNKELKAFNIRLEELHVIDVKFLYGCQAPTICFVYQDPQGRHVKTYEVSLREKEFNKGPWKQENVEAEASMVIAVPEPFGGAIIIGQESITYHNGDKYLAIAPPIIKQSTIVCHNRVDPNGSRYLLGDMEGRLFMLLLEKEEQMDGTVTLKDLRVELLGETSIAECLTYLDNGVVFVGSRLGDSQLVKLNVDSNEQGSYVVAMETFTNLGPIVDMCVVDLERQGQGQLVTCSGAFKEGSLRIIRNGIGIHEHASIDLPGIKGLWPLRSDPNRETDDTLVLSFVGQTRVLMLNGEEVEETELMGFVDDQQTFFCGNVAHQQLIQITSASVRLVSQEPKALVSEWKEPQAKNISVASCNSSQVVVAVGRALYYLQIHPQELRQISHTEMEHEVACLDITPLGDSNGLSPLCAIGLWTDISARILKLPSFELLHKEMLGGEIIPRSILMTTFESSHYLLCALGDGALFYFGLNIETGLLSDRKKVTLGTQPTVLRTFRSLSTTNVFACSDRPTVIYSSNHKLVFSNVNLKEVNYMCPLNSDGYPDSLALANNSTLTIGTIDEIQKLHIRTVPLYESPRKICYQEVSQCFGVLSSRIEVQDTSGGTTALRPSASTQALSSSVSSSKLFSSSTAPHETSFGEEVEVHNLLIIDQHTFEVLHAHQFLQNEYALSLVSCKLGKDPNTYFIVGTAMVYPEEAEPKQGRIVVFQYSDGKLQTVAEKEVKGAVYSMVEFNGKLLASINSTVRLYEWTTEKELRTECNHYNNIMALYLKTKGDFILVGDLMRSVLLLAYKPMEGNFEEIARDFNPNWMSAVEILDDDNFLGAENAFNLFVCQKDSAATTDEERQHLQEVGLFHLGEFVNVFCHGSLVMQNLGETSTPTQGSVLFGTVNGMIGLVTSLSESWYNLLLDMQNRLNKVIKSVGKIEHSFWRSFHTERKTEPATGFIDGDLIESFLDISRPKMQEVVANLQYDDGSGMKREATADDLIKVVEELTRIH
Protocol: Molt 4_hGSPT1_HiBIT N-terminus tagged cells were generated using CRISPR technology. Cells were maintained in RPMI media (Thermo Fisher Scientific, Catalog #11875-093) containing 10% Fetal Bovine Serum (Thermo Fisher Scientific, Catalog #16140071) 1% Penicillin-Streptomycin (Thermo Fisher Scientific, Catalog #25200056). Cells were maintained at 37° C. in a 5% CO2 environment.
Compounds were spotted onto Cornin 384-Well, Cell Culture-Treated, Flat-Bottom, Low Flange Microplate (Fisher Scientific, Catalog #07-201-013) using a Tecan D300e digital dispenser. Ten-point dose response curves spanning from 10 μM to 0.005 μM with a 0.1% DMSO tolerance were used.
Cells were centrifuged for 5 minutes at 1200 RPMs. Cell culture media was aspirated off and cells were resuspended with RPMI+10% FBS. Cell density was determined using a Denovix CellDrop BF cell counter. Cell density was adjusted to 1×10^6 cells/ml. 40 μl of cells was added to compound treated tissue culture plates and incubated for six hours at 37° C. After six hours, cell culture plates were removed from tissue culture incubator and cooled to room temperature. 40 μl of Nano-GloHiBiT Lytic Detection Reagent (Promega, Catalog #N3040) was added to each well. Plates were placed on an orbital shaker (600 rpm) for 20 minutes. Luminescence was measured using an Envsion plate reader (Perkin Elmer). IC50 curves and Ymin were generated using a 4-parameter curve fit with GraphPad Prism software (Prism Corporation).
Results from the HiBiT assay (DC50 (nM) and Ymin (% remaining)) are shown below. All CK1α data was generated according to Procedure A. GSPT1 data for Examples 1-600, 603-620 and 703-705 was generated according to Procedure A. GSPT1 data for Examples 601, 621-702 and 706-735 was generated according to Procedure B.

[2] = molecular target: T1, CK1α (Homo sapiens, UniProt P48729+Q96SW2); experiment: HiBiT degradation assay, CK1α, Procedure A; assay type: cell-based; settings: six hours
T1 construct: CSNK1A1-HiBit KI HEK293(LgBit) Cells; host or cells: HEK293(LgBit) knock-in cells
T1 sequence (P48729 whole entry): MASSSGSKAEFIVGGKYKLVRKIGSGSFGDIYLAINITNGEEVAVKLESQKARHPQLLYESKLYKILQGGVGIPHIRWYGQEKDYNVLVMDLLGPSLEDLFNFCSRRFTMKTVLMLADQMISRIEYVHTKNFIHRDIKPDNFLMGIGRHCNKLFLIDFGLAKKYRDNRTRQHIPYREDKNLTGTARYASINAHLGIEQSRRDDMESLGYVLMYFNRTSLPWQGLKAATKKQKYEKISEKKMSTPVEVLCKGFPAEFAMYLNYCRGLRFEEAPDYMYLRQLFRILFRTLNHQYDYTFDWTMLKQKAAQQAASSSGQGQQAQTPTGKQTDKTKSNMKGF
T1 sequence (Q96SW2 whole entry): as the sequence (Q96SW2 whole entry) above
T1 sequence (Q16531 whole entry partner): as the sequence (Q16531 whole entry partner) above
In short: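 Cells in DMEM+10% FBS at 1×10^6 cells/ml were added to pre-spotted compound (10-point dose response, 10 μM to 0.005 μM, 0.1% DMSO) and incubated 6 h at 37° C. Nano-Glo HiBiT lytic reagent was added and luminescence read. DC50 and Ymin came from 4-parameter curve fits.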

| SMILES | DC50 [1] | GSPT1 Ymin [1] | CK1α Ymin [2] | DC50 [2] |
| --- | --- | --- | --- | --- |
| Cn1cc(-c2ccc3c(c2)CN(C2CCC(=O)NC2=O)C3=O)nc1[C@H]1CC[C@H](C(F)(F)F)CC1 (stereo partly shown) [Example 601, 3-(5-(1-methyl-2-((1r,4r)-4-(trifluoromethyl)cyclohexyl)-1H-imidazol-4-yl)-1-oxoisoindolin-2-yl)piperidine-2,6-dione] | ≥ 25 nM | E (E = >25-75% remaining) | E (E = >25-75% remaining) | ≥ 25 nM |
| Cn1nc(-c2ccc3c(c2)CN(C2CCC(=O)NC2=O)C3=O)nc1N1CCOCC1 (stereo not shown) [Example 602, 3-(5-(1-methyl-5-morpholino-1H-1,2,4-triazol-3-yl)-1-oxoisoindolin-2-yl)piperidine-2,6-dione] | ≥ 25 nM | F (F = >75-100% remaining) | E (E = >25-75% remaining) | < 25 nM |
| Cn1nc(-c2ccc3c(c2)CN(C2CCC(=O)NC2=O)C3=O)nc1-c1ccc(F)cc1 (stereo not shown) [Example 623, 3-(5-(5-(4-fluorophenyl)-1-methyl-1H-1,2,4-triazol-3-yl)-1-oxoisoindolin-2-yl)piperidine-2,6-dione] | < 25 nM | F (F = >75-100% remaining) | D (D = >10- 25% remaining) | < 25 nM |
| Cn1cc(-c2ccc3c(c2)CN(C2CCC(=O)NC2=O)C3=O)nc1-c1ccccc1O (stereo not shown) [Example 624] | < 25 nM | F (F = >75-100% remaining) | C (C = 0-10% remaining) | < 25 nM |
| COc1ccc(Cn2cc(-c3nc(-c4ccc5c(c4)CN(C4CCC(=O)NC4=O)C5=O)cn3C)cn2)cc1 (stereo not shown) [Example 625] | ≥ 25 nM | F (F = >75-100% remaining) | C (C = 0-10% remaining) | < 25 nM |
| Cn1cc(-c2ccc3c(c2)CN(C2CCC(=O)NC2=O)C3=O)nc1-c1cccc(C(F)F)c1 (stereo not shown) [Example 626] | ≥ 25 nM | F (F = >75-100% remaining) | C (C = 0-10% remaining) | < 25 nM |
| Cn1cc(-c2ccc3c(c2)CN(C2CCC(=O)NC2=O)C3=O)nc1-c1ccc(O)cc1 (stereo not shown) [Example 627] | ≥ 25 nM | E (E = >25-75% remaining) | C (C = 0-10% remaining) | < 25 nM |
| Cn1cc(-c2ccc3c(c2)CN(C2CCC(=O)NC2=O)C3=O)nc1-c1ccc(F)c(F)c1 (stereo not shown) [Example 628] | ≥ 25 nM | F (F = >75-100% remaining) | D (D = >10- 25% remaining) | < 25 nM |

Now from value to compound:

| DC50 [1] | GSPT1 Ymin [1] | CK1α Ymin [2] | DC50 [2] | SMILES |
| --- | --- | --- | --- | --- |
| ≥ 25 nM | F (F = >75-100% remaining) | C (C = 0-10% remaining) | < 25 nM | Cn1cc(-c2ccc3c(c2)CN(C2CCC(=O)NC2=O)C3=O)nc1-c1ccc(Cl)cc1 (stereo not shown) [Example 629] |
| ≥ 25 nM | F (F = >75-100% remaining) | C (C = 0-10% remaining) | ≥ 25 nM | Cn1cc(-c2ccc3c(c2)CN(C2CCC(=O)NC2=O)C3=O)nc1-c1ccncc1 (stereo not shown) [Example 630] |
| ≥ 25 nM | F (F = >75-100% remaining) | C (C = 0-10% remaining) | < 25 nM | Cn1cc(-c2ccc3c(c2)CN(C2CCC(=O)NC2=O)C3=O)nc1-c1cccc(F)c1 (stereo not shown) [Example 631] |
| ≥ 25 nM | F (F = >75-100% remaining) | D (D = >10- 25% remaining) | < 25 nM | Cn1cc(-c2ccc3c(c2)CN(C2CCC(=O)NC2=O)C3=O)nc1-c1cccc(C#N)c1 (stereo not shown) [Example 632] |
| < 25 nM | F (F = >75-100% remaining) | D (D = >10- 25% remaining) | < 25 nM | Cn1cc(-c2ccc3c(c2)CN(C2CCC(=O)NC2=O)C3=O)nc1-c1ccc(C#N)cc1 (stereo not shown) [Example 633] |
